Experimental data taken from patent US7223733B2, “Modulation of TRIP-Br function and method of treating proliferative disorders” (National University of Singapore, priority 2004, dated 2007).
Where no end group is shown, it is not given here. [invdT] = inverted (3'-3') thymidine

Columns and labels:
Assay type in all cases: cell-based, human
[1] = test system: CNE2 (nasal pharyngeal carcinoma); assay: Anti-proliferative phenotypes in CNE2 cells; details: data not shown
[2] = test system: E2F-responsive luciferase reporter (pGL3-TATA-6xE2F-Luc); assay: E2F-responsive luciferase reporter assay in U2OS cells; details: 50 μM, 5 h
Procedure: DNA Transfection and Sequential β-Galactosidase/Luciferase Assay. For luciferase reporter assays, U2OS cells were cultured in 6-well dishes and transfected 24 h later with various reporter plasmids by the calcium precipitation method as previously described (Martin, K., et al. Nature 375, 691-694 (1995)). 24 h following precipitate removal, cells were exposed for 5 h to either vehicle (0.5% DMSO) or 50 μM of decoy peptide, prior to harvesting. Cells were scraped in 200 μl of lysis buffer and a single 10 μl aliquot of lysate was immediately used for sequential measurement of β-galactosidase and luciferase activity using the Dual Light System (Tropix). For protein overexpression experiments, U2OS cells were cultured in 6-well plates at a density of 1×10^5 cells/well and transfected 24 h later with Superfect reagent (QIAGEN).
FIG. 3: Analysis of E2F-responsive transcription in U2OS cells in response to decoy peptide treatment. […] Values represent the average +/− standard deviation of at least two independent experiments; (B) Semi-quantitative RT-PCR analysis on total RNA for dhfr, cyclin-E, cyclin A2, PCNA, DNA Pola and cdc2 expression in U2OS cells exposed for 16 h to either vehicle (0.5% DMSO) or 50 μM of the indicated decoy peptides. […]

Fbxw7 mRNA = assay: Semi-quantitative RT-PCR of Fbxw7 in U2OS cells; details: U2OS, 5, 10 or 20 μM
Procedure: Semi-quantitative RT-PCR. Total RNA was isolated from U2OS cells or U2OS-ER-E2F-1 cells (grown with or without 1.0 μM OHT and/or 10 μg/ml cycloheximide) using the TRIZOL® Reagent (Life Technologies). Total RNA (4 μg) was reverse transcribed using oligo-dT and M-MLV reverse transcriptase in a total reaction volume of 20 μl. Polymerase Chain Reactions (PCR) were carried out on 3 μl cDNA samples in the presence of […] deoxyribonucleotide triphosphates (dNTPs) and 40 μM of specific primer pairs in a total reaction volume of 50 μ. The cycling profile for PCR was as follow: 30 cycles of denaturation (94° C., 30 sec), annealing (51° C., 30 sec) and extension (72° C., 2 min), with a 2-minute initial denaturation step at 94° C. and a 10-minute terminal polishing step at 72° C. Sequences of gene-specific primers are available upon request. PCR amplification products were analyzed by agarose gel electrophoresis.
FIG. 8: The role(s) of the TRIP-Br integrator function in cyclin E regulation. […] U2OS cells exposed to 5, 10 or 20 μM of decoy peptides were analyzed for Fbxw7 mRNA transcript levels by semi-quantitative RT-PCR. H-actin was co-amplified as an internal control; (C) cyclin-E and Fbxw7 expression was analyzed by semi-quantitative RT-PCR using total RNA from sub-confluent U2OS ER-E2F-1 cells grown with or without OHT and/or cycloheximide (CHX) for 2 h as indicated. […]

WI-38 cells = assay: Colony formation assay of WI-38 cells (crystal violet); details: WI-38, serum-induced, 72 h
Procedure: DNA enzyme transfection. WI-38 cells were rendered quiescent by cultivation in serum-free medium for 72 h before being transfected with DNA enzyme (0.1 μM) using Superfect as reported previously (Santiago, F. S., et al. Nat Med 5, 1264-1269 (1999)) in accordance to manufacturer's recommendations (Qiagen).
Cell proliferation assays. For the BrdU incorporation assays, growth-quiescent WI-38 cells in 96-well dishes were transfected with DNA enzyme and/or 100 ng of pCMV/E2F1, pCMV/DP1, pRSV/Cyclin E, or pCMV/Cdk2 and then exposed to Bromodeoxyuridine (BrdU, 100 μM) in the presence or absence of 10% FBS for 20 h. Bromodeoxyuridine (BrdU) incorporation was monitored with a calorimetric ELISA assay using a cell proliferation kit according to manufacturer's recommendations (Boehringer Mannheim). For manual cell count, growth-quiescent WI-38 cells in 24-well dishes were transfected with DNA enzyme and then exposed to 10% FBS for 72 h. The cells were rinsed with PBS, pH 7.4, and trypsinized, and 10 μl of cell suspension was taken from each sample and mixed with equal volume of trypan blue stain (Sigma, 0.4% w/v in 1×PBS). The number of unstained cells was enumerated manually using a hemocytometer. […] Cells were stained in situ with crystal violet (0.75% w/v hexamethyl-p-rosaniline chloride [SIGMA], 50% ethanol, 1.75% w/v paraformaldehyde, 0.25% w/v NaCl) for 10 min, and then rinsed thoroughly with deionized water to remove excess stains.
FIG. 12: (A) E-Br1 or E-Br2 inhibits cell proliferation. Sub-confluent WI-38 cells were serum-starved for 72 h. Following DNA enzyme transfection, the cultures were re-stimulated with serum and allowed to proliferate. After 72 h, cells were harvested for viable cell count analysis. 10 μl of cell suspension from each sample was mixed with equal volume of 0.4% trypan blue stain. The number of unstained cells was enumerated manually using a hemocytometer. Data represent the average of at least two independent experiments. […] (B) E-Br1 or E-Br2 suppresses colony formation. Sub-confluent WI-38 cells were serum-starved for 72 h. […]

Substance | response of CNE2 cells [1] | transcriptional activity of the E2F-responsive luciferase reporter [2] | expression level of Fbxw7 mRNA (Fbxw7 mRNA) | colony forming potential (WI-38 cells)
ERQIKIWFQNRRMKWKKTGFLTDLTLDDILFADID (ERQIKIWFQNRRMKWKKTGFLTDLTLDDILFADID-NH2) [*Br2] | in manners similar to those exhibited by U2OS cells | decreased the transcriptional activity | down-regulated the expression level of Fbxw7 in a dose-dependent fashion | 
ERQIKIWFQNRRMKWKKATGCLLDDGLEGLFEDID (ERQIKIWFQNRRMKWKKATGCLLDDGLEGLFEDID-NH2) [*Br1] | in manners similar to those exhibited by U2OS cells | decreased the transcriptional activity | down-regulated the expression level of Fbxw7 in a dose-dependent fashion | 
5′-T TACCCAACAGGCTAGCTACAACGAATATCACA-3′ (DNA TTACCCAACAGGCTAGCTACAACGAATATCACA; DNA, 3' [invdT], backbone not given here) [E-Br2] |  |  |  | significantly reduced colony forming potential
5′-T TGCTCAGCAGGCTAGCTACAACGACTTGCTCA-3′ (DNA TTGCTCAGCAGGCTAGCTACAACGACTTGCTCA; DNA, 3' [invdT], backbone not given here) [E-Br1] |  |  |  | significantly reduced colony forming potential
